Reference: ChEMBL document CHEMBL4385604, “Identification of Pyrrolo[2,3- d]pyrimidine-Based Derivatives as Potent and Orally Effective Fms-like Tyrosine Receptor Kinase 3 (FLT3) Inhibitors for Treating Acute Myelogenous Leukemia” (J Med Chem, 2019)
Activity calls are given as the source filed them. The calls are words filed in the database; no cut-off is given here.

Tests used:
[1] = Elimination half-life in Sprague-Dawley rat at 5 mg/kg, po by LC-MS/MS analysis; assay type: ADME, organism-based; conditions: in vivo, read-out: beta t1/2 (converted)
[2] = Oral bioavailability in Sprague-Dawley rat at 5 mg/kg by LC-MS/MS analysis; assay type: ADME, organism-based; conditions: in vivo
[3] = biological target: Receptor-type tyrosine-protein kinase FLT3 (Homo sapiens, UniProt P36888, ITD); experiment: Binding affinity to human partial length FLT3 ITD mutant expressed in Escherichia coli measured after 1 hr by qPCR analysis
[4] = biological target: Receptor-type tyrosine-protein kinase FLT3 (Homo sapiens, UniProt P36888, K663Q); experiment: Binding affinity to human partial length FLT3 K663Q mutant (V592 to Y969 residues) expressed in Escherichia coli after 1 hr by qPCR analysis
[5] = biological target: Receptor-type tyrosine-protein kinase FLT3 (Homo sapiens) (UniProt P36888); experiment: Inhibition of FLT3 autophosphorylation in human MV4-11 cells assessed as ratio of phosphorylated FLT3 to beta-actin level at 100 nM after 2 hrs by Western blot analysis relative to control; assay type: cell-based
[6] = system: MV4-11; experiment: Inhibition of MAPK in human MV4-11 cells assessed as ratio of phosphorylated ERK to beta-actin level at 100 nM after 2 hrs by Western blot analysis relative to control; assay type: cell-based
[7] = species on record: Homo sapiens; experiment: Inhibition of MAPK in human MOLM13 cells assessed as ratio of phosphorylated ERK to beta-actin level at 30 nM after 2 hrs by Western blot analysis relative to control; assay type: cell-based
[8] = system: MOLM-13; experiment: Antitumour activity against human MOLM13 cells xenografted in NOD/SCID mouse assessed as tumour growth inibition at 10 mg/kg, po qd for 10 days measured every two days during compound dosing by caliper method relative to control; assay type: functional; conditions: MOLM-13, po, read-out: TGI
[9] = system: MOLM-13; experiment: Cell cycle arrest in human MOLM13 cells assessed as accumulation at G2/M phase at 1 nM after 24 hrs by propidium iodide staining-based flow cytometric analysis (reference value: 13.52%); assay type: functional
[10] = system: MOLM-13; experiment: Cell cycle arrest in human MOLM13 cells assessed as accumulation at G2/M phase at 10 nM after 24 hrs by propidium iodide staining-based flow cytometric analysis (reference value: 13.52%); assay type: functional
[11] = system: MV4-11; experiment: Cell cycle arrest in human MV4-11 cells assessed as accumulation at G2/M phase at 1 nM after 24 hrs by propidium iodide staining-based flow cytometric analysis (reference value: 21.12%); assay type: functional
[12] = system: MOLM-13; experiment: Cell cycle arrest in human MOLM13 cells assessed as accumulation at S phase at 1 nM after 24 hrs by propidium iodide staining-based flow cytometric analysis (reference value: 41.95%); assay type: functional
[13] = system: MV4-11; experiment: Cell cycle arrest in human MV4-11 cells assessed as accumulation at S phase at 1 nM after 24 hrs by propidium iodide staining-based flow cytometric analysis (reference value: 30.12%); assay type: functional
[14] = system: MV4-11; experiment: Cell cycle arrest in human MV4-11 cells assessed as accumulation at S phase at 10 nM after 24 hrs by propidium iodide staining-based flow cytometric analysis (reference value: 30.12%); assay type: functional
[15] = system: MOLM-13; experiment: Induction of apoptosis in human MOLM13 cells assessed as viable cells at 1 nM after 48 hrs by Annexin V/propidium iodide staining based flow cytometry (reference value: 88.2%); assay type: functional; conditions: MOLM-13, 48 h, read-out: Activity
[16] = system: MOLM-13; experiment: Induction of apoptosis in human MOLM13 cells assessed as early apoptotic cells at 1 nM after 48 hrs by Annexin V/propidium iodide staining based flow cytometry (reference value: 5.97%); assay type: functional
[17] = system: MV4-11; experiment: Induction of apoptosis in human MV4-11 cells assessed as viable cells at 1 nM after 48 hrs by Annexin V/propidium iodide staining based flow cytometry (reference value: 94.4%); assay type: functional; conditions: MV4-11, 48 h, read-out: Activity
[18] = system: HL-60; experiment: Antiproliferative activity against human HL60 cells harboring wild-type FLT3 measured after 72 hrs by MTT assay; assay type: functional, cell-based; conditions: HL-60, 72 h
[19] = system: MOLM-13; experiment: Induction of apoptosis in human MOLM13 cells assessed as late apoptotic cells at 10 nM after 48 hrs by Annexin V/propidium iodide staining based flow cytometry (reference value: 5.52%); assay type: functional
[20] = system: MOLM-13; experiment: Induction of apoptosis in human MOLM13 cells assessed as necrotic cells at 10 nM after 48 hrs by Annexin V/propidium iodide staining based flow cytometry (reference value: 0.29%); assay type: functional
[21] = system: MOLM-13; experiment: Induction of apoptosis in human MOLM13 cells assessed as necrotic cells at 1 uM after 48 hrs by Annexin V/propidium iodide staining based flow cytometry (reference value: 0.29%); assay type: functional
[22] = system: MOLM-13; experiment: Induction of apoptosis in human MOLM13 cells assessed as viable cells at 10 uM after 48 hrs by Annexin V/propidium iodide staining based flow cytometry (reference value: 88.2%); assay type: functional; conditions: MOLM-13, 48 h, read-out: Activity
[23] = system: MOLM-13; experiment: Induction of apoptosis in human MOLM13 cells assessed as late apoptotic cells at 10 uM after 48 hrs by Annexin V/propidium iodide staining based flow cytometry (reference value: 5.52%); assay type: functional
[24] = system: MV4-11; experiment: Induction of apoptosis in human MV4-11 cells assessed as early apoptotic cells at 10 nM after 48 hrs by Annexin V/propidium iodide staining based flow cytometry (reference value: 2.76%); assay type: functional
[25] = system: MV4-11; experiment: Induction of apoptosis in human MV4-11 cells assessed as late apoptotic cells at 100 nM after 48 hrs by Annexin V/propidium iodide staining based flow cytometry (reference value: 2.83%); assay type: functional
[26] = system: MV4-11; experiment: Induction of apoptosis in human MV4-11 cells assessed as late apoptotic cells at 1 uM after 48 hrs by Annexin V/propidium iodide staining based flow cytometry (reference value: 2.83%); assay type: functional
[27] = Toxicity in NOD/SCID mouse xenografted with human MV4-11 cells at 10 mg/kg, po qd for 18 days; assay type: organism-based; conditions: in vivo, 432 h
[28] = system: MV4-11; experiment: Antitumour activity against human MV4-11 cells xenografted in NOD/SCID mouse assessed as tumour growth inhibition at 10 mg/kg, po qd for 18 days measured on day 24 by caliper method; assay type: functional, organism-based
[29] = system: MOLM-13; experiment: cells; conditions: Homo sapiens, MOLM-13, 72 h
Description: Antiproliferative activity against human MOLM13 cells harboring FLT3-ITD mutant measured after 72 hrs by MTT assay

[30] = system: MOLM-13; experiment: animal or person; conditions: Mus musculus, MOLM-13, po, read-out: TGI
Description: Antitumour activity against human MOLM13 cells xenografted in NOD/SCID mouse assessed as tumour growth inibition at 3 mg/kg, po qd for 10 days measured every two days during compound dosing by caliper method relative to control

half-life [1]: 2.06 h | bioavailability [2]: 59.5% | Kd [3]: 20.5 nM | Kd [4]: 2.48 nM | fold change (FC) [5]: 0 | IC50 [18]: > 1000 nM | IC50 [29]: 0.022 nM
Compound: C=CCn1cc(-c2ccc(NC(=O)Nc3cc(C(C)(C)C)on3)cc2)c2c(N)ncnc21
fold change (FC) [6]: 0 | fold change (FC) [7]: 0.1 | inhibition in vivo at 10 mg/kg [8]: 96% | Activity [9]: 11% | Activity [10]: 2.37% | Activity [11]: 16.55% | Activity [12]: 35.23% | Activity [13]: 32.51% | Activity [14]: 2.06% | viability at 0.001 µM [15]: 85% | Activity [16]: 5.67% | viability at 0.001 µM [17]: 92.7% | Activity [19]: 18.3% | Activity [20]: 0.12% | Activity [21]: 0.62% | viability at 10 µM [22]: 0.48% | Activity [23]: 98.5% | Activity [24]: 9.57% | Activity [25]: 12.7% | Activity [26]: 24.8% | Activity [27]: Non-Toxic | TGI [28]: inactive | inhibition in vivo at 3 mg/kg [30]: 94.5%
